Data taken from BindingDB's records for doi:10.7270/Q2TX3CTT (Broad Institute, 2010).
pEC50: −log10 of the molar value.

Target: Glycogen synthase kinase-3 beta (Homo sapiens, UniProt P49841)
Experiment: concentration-response blocking of human GSK3B – biochemical, luminescence, cell-free homogeneous, retest, dose response (AID 434954)

Sequence of Glycogen synthase kinase-3 beta (P49841 whole entry): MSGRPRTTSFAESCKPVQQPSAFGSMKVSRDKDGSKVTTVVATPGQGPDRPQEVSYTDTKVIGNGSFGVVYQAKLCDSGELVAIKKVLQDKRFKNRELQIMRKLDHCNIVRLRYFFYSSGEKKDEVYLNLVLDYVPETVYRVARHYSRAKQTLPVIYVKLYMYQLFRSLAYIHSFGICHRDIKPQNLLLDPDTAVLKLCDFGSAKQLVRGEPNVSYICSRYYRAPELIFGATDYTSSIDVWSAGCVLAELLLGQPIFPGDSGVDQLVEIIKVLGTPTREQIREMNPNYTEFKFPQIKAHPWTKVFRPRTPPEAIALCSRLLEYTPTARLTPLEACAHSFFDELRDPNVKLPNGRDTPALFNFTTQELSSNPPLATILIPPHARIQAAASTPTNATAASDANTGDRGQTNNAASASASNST

pEC50	Compound
< 3.52	O=C(N[N-][CH+]c1ccc(N2CCCC2)c([N+](=O)[O-])c1)c1cccnc1 [N-[(3-nitro-4-pyrrolidin-1-ylphenyl)methylideneamino]pyridine-3-carboxamide]
< 3.52	O=C(CN1C(=O)CCC1=O)Nc1cccc(NC(=O)CN2C(=O)CCC2=O)c1 [2-(2,5-dioxo-1-pyrrolidinyl)-N-[3-[[2-(2,5-dioxo-1-pyrrolidinyl)-1-oxoethyl]amino]phenyl]acetamide]
< 3.52	Cc1ccccc1NC(=O)CN1C(=O)c2ccccc2C1=O [2-[1,3-bis(oxidanylidene)isoindol-2-yl]-N-(2-methylphenyl)ethanamide]
4.58	COC(=O)c1nnn(-c2nonc2N)c1-c1cccs1 [1-(4-amino-1,2,5-oxadiazol-3-yl)-5-thiophen-2-yl-4-triazolecarboxylic acid methyl ester]
< 3.52	Cc1ccc(C(=O)Nc2ncc([N+](=O)[O-])s2)cc1
< 3.52	Cc1ccc(OCC(=O)NN=C2SCC(=O)N2Cc2ccccc2)cc1 [2-(4-methylphenoxy)-N-[[4-oxo-3-(phenylmethyl)-2-thiazolidinylidene]amino]acetamide]
< 3.52	CCN1CCN(C(=O)c2ccc3c(c2)N(Cc2ccc(F)cc2)C(=O)c2ccccc2[S+]3[O-])CC1 (stereo not drawn) [MLS000117749]
< 3.52	CCOc1ccccc1C=NNC(=O)c1nnn(-c2nonc2N)c1CN1CCC(C)CC1 [SMR000620330]
< 3.52	COCCn1c(SCC(=O)NC(=O)NC(C)(C)C)nc2ccccc21
4.84	CCOC(=O)c1nnn(-c2nonc2N)c1-c1ccc(OC)cc1 [1-(4-amino-1,2,5-oxadiazol-3-yl)-5-(4-methoxyphenyl)-4-triazolecarboxylic acid ethyl ester]
< 3.52	Cc1ccc(-c2oc3ccccc3c(=O)c2O)cc1 [MLS000114653]
< 3.52	Cc1ccc(NC2=CC(=O)CC(C)(C)C2)cc1F [MLS001198284]
< 3.52	COc1ccc(-c2ccc3c(N)c(C(=O)c4cccc(OC)c4)sc3n2)cc1 [SMR000160395]
< 3.52	Cc1ccc(S(=O)(=O)CC(=O)Nc2ncc([N+](=O)[O-])s2)cc1 [2-(4-methylphenyl)sulfonyl-N-(5-nitro-1,3-thiazol-2-yl)acetamide]
< 3.52	O=C(COc1ccccc1[N+](=O)[O-])NN=Cc1ccccn1 [(2-Nitro-phenoxy)-acetic acid [1-pyridin-2-yl-meth-(E)-ylidene]-hydrazide]
< 3.52	O=C1N=C(Nc2ccccc2)SC1=Cc1cccnc1 [MLS000768418]
< 3.52	COc1cc(CN=O)ccc1OCc1ccccc1Cl [4-(2-chlorobenzyl)oxy-3-methoxy-benzaldoxime]
< 3.52	Cc1ccccc1N(CC(=O)NN=Cc1cc(Br)c(C)o1)S(C)(=O)=O [N-[(4-bromo-5-methylfuran-2-yl)methylideneamino]-2-(2-methyl-N-methylsulfonylanilino)acetamide]
< 3.52	O=C(O)C1C2C=CC(O2)C1C(=O)NCc1ccc(Cl)cc1 (stereo not drawn) [3-{[(4-chlorobenzyl)amino]carbonyl}-7-oxabicyclo[2.2.1]hept-5-ene-2-carboxylic acid]
< 3.52	O=C(NN=Cc1ccc2nccnc2c1)c1ccncc1 [N-(quinoxalin-6-ylmethylideneamino)pyridine-4-carboxamide]
5.27	CCC(C)Oc1cc(-c2ccnc(Nc3cccc(Cl)c3)n2)ccn1 (stereo not drawn) [SMR000463563]
< 3.52	O=C(OCCN1CCOCC1)c1ccc(O)cc1 [SMR000513589]
< 3.52	O=C(COc1ccc2ccccc2c1)Nc1cccc2c1C(=O)NC2=O [MLS000375387]
< 3.52	COc1ccc(CN(CC(=O)NCc2ccco2)C(=O)CCC(=O)Nc2ccccn2)cc1 [N'-[2-(2-furanylmethylamino)-2-oxoethyl]-N'-[(4-methoxyphenyl)methyl]-N-(2-pyridinyl)butanediamide]

pEC50	Compound
< 3.52	Cc1cccc(COc2ccc(C=NNC(=O)c3nnn(-c4nonc4N)c3CN3CCCCC3)cc2)c1 [SMR000646486]
< 3.52	Cc1oc2c(CN(C)C)c(O)ccc2c(=O)c1-c1cscn1
5.15	Nc1nc(NCC2CCCO2)nc(Nc2cccc(F)c2)c1[N+](=O)[O-] (stereo not drawn) [N4-(3-fluorophenyl)-5-nitro-N2-(2-oxolanylmethyl)pyrimidine-2,4,6-triamine]
< 3.52	OC(CNc1nc(-c2cccnc2)nc2ccccc12)c1ccccc1 (stereo not drawn) [SMR000592049]
< 3.52	CC(CC(=O)Nc1cc(C)ccn1)=NNC(=O)C(=O)NC(C)C [N'-[[4-[(4-methylpyridin-2-yl)amino]-4-oxidanylidene-butan-2-ylidene]amino]-N-propan-2-yl-ethanediamide]
< 3.52	Cc1cccc(N2CCN(C(=O)c3csc4ccccc34)CC2C)c1 (stereo not drawn) [4-(1-benzothien-3-ylcarbonyl)-2-methyl-1-(3-methylphenyl)piperazine]
< 3.52	O=C(COC(=O)C1CCN(/C=C/C(=O)C(F)(F)F)CC1)Nc1ccccc1 [MLS000390182]
< 3.52	CCOC(=O)c1cnc2ccc(F)cc2c1Nc1ccc2c(c1)OCCO2 [SMR000198647]
< 3.52	CCCC(=O)Nc1nn(CC(C)C)c2nc3cc(C)ccc3cc12 [SMR000540561]
< 3.52	CC1(C)CC(=O)C2C(=Nc3[nH]c(=S)[nH]c(=O)c3C2c2ccccc2)C1 (stereo not drawn) [8,8-dimethyl-5-phenyl-2-sulfanylidene-5,7,9,10-tetrahydro-1H-pyrimido[4,5-b]quinoline-4,6-dione]
< 3.52	O=C(c1cc(COc2ccc(F)cc2F)on1)N1CCCC(c2ccccc2)C1 (stereo not drawn) [[5-[[2,4-bis(fluoranyl)phenoxy]methyl]-1,2-oxazol-3-yl]-(3-phenylpiperidin-1-yl)methanone]
< 3.52	CC1(C)CC(=O)C=C(NCc2ccccc2)C1 [SMR000186728]
< 3.52	CCCCn1nc(NC(=O)COC)c2cc3cc(OC)ccc3nc21 [N-(1-butyl-6-methoxy-3-pyrazolo[3,4-b]quinolinyl)-2-methoxyacetamide]
5.06	Nc1nonc1-n1nnc(C(=O)NN=Cc2cc(Cl)ccc2O)c1CN1CCCCCC1 [SMR000620619]
< 3.52	Cc1ccnc(NC(=O)c2ccc([N+](=O)[O-])s2)c1 [N-(4-methylpyridin-2-yl)-5-nitro-thiophene-2-carboxamide]
4.95	Fc1ccccc1CN=Nc1ncnc2nc[nH]c12
5.65	Nc1nc(NCCCN2CCOCC2)nc(Nc2ccccc2)c1[N+](=O)[O-] [SMR000219678]
< 3.52	Nc1ncnc(Nc2cccc(C(F)(F)F)c2)n1
< 3.52	Cc1ncc(CN2CCCC(C(=O)Nc3ccc(-c4cccc(F)c4)cc3)C2)cn1 (stereo not drawn) [N-[4-(3-fluorophenyl)phenyl]-1-[(2-methylpyrimidin-5-yl)methyl]piperidine-3-carboxamide]
< 3.52	CC(=O)c1cccc(Nc2nc(-c3ccccc3)nc3ccccc23)c1 [SMR000516691]
< 3.52	O=C1C2C3C=CC(C3)C2C(=O)N1CCCCCCN1C(=O)C2C3C=CC(C3)C2C1=O (stereo not drawn) [SMR000283963]
5.51	NCCCNc1nc(N)c([N+](=O)[O-])c(NC2CCCCC2)n1 [N2-(3-aminopropyl)-N4-cyclohexyl-5-nitropyrimidine-2,4,6-triamine]
4.63	Cn1c(SCC(=O)Nc2ccc(Cl)cn2)nnc1C1CC1 [N-(5-chloro-2-pyridinyl)-2-[(5-cyclopropyl-4-methyl-1,2,4-triazol-3-yl)thio]acetamide]
< 3.52	CCn1c(-c2nn(C)cc2Cl)n[nH]c1=S [MLS000703969]
